Experimental data reported in PubChem BioAssay AID743424 (The Scripps Research Institute Molecular Screening Center, 2014).
Calls of active or inactive are those of the source. How the calls were made is not given here.

Target: Sphingosine 1-phosphate receptor 3 (Homo sapiens) (UniProt Q99500)
Assay: agonism at human S1PR3 – cell-based, fluorescence, dose response, counter-screen for S1PR3 antagonist project, late-stage follow-up (AID 743424)
Settings: S1P3-expressing cells, agonist-mode fluorescence counterscreen

Sequence of Sphingosine 1-phosphate receptor 3 (Homo sapiens) (Q99500 whole entry, looked up): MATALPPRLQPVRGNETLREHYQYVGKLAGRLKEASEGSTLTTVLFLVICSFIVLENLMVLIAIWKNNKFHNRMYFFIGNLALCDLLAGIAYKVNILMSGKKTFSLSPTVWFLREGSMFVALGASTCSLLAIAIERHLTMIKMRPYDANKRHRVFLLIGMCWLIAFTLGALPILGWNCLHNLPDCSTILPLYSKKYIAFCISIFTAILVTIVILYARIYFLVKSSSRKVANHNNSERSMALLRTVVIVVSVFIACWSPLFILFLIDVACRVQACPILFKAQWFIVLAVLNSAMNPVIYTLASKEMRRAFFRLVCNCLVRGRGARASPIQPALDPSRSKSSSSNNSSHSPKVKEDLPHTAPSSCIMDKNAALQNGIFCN

SMILES | EC50
O=C(NC(c1ccc(Cl)cc1)c1nc(-c2ccccc2)no1)c1ccc(Cl)c(Br)c1 (configuration not stated) | > 50 µM (inactive)
O=C(c1cccc(Cl)c1)N(CCO)C(c1ccc(Cl)c(Cl)c1)c1nc(-c2ccccc2)no1 (configuration not stated) | > 50 µM (inactive)
O=C(NC(c1ccccc1)c1nc(-c2ccccc2)no1)c1cccc(Br)c1 (configuration not stated) | > 50 µM (inactive)
COc1ccc(C(=O)NC(c2ccccc2)c2nc(-c3ccccc3)no2)cc1 (configuration not stated) | > 50 µM (inactive)
O=C(NC(c1cccc(Cl)c1)c1nc(-c2ccccc2)no1)c1cc(Cl)cc(Cl)c1 (configuration not stated) | > 50 µM (inactive)
O=C(NC(c1ccc(Cl)cc1)c1nc(-c2ccccn2)no1)c1cccc(Cl)c1 (configuration not stated) | > 50 µM (inactive)
O=C(NC(Cc1ccccc1)c1nc(-c2ccccc2)no1)c1cccc(Cl)c1 (configuration not stated) | > 50 µM (inactive)
O=C(NC(c1ccccc1)c1nc(-c2ccccc2)no1)c1cccc(Cl)n1 (configuration not stated) | inactive
CCc1ccc(C(NC(=O)c2cccc(Cl)c2)c2nc(-c3ccccc3)no2)cc1 (configuration not stated) | > 50 µM (inactive)
O=C(NC(c1nc(-c2ccccc2)no1)C1CCOCC1)c1ccc(Cl)c(Cl)c1 (configuration not stated) | > 50 µM (inactive)
O=C(NC(c1cccc(Cl)c1)c1nc(-c2ccccc2)no1)c1ccc(Cl)c(Cl)c1 (configuration not stated) | > 50 µM (inactive)
O=C(NC(c1ccc(Cl)c(Cl)c1)c1nc(-c2ccccc2)no1)c1ccc(Cl)c(Cl)c1 (configuration not stated) | > 50 µM (inactive)
O=C(NC(c1ccc(Cl)cc1)c1nc(-c2ccccc2)no1)c1cccc(Cl)c1 (configuration not stated) | > 50 µM (inactive)
O=C(NC(c1ccc(Cl)c(Cl)c1)c1nc(-c2ccccc2)no1)c1ccccc1 (configuration not stated) | > 50 µM (inactive)
Cc1ccc(C(NC(=O)c2cccc(Cl)c2)c2nc(-c3ccccc3)no2)cc1 (configuration not stated) | > 50 µM (inactive)
O=C(NC(c1cccc(Cl)c1)c1nc(-c2ccccc2)no1)c1cccc(Cl)c1 (configuration not stated) | > 50 µM (inactive)
O=C(NC(c1ccc(Cl)cc1)c1nc(-c2ccccc2)no1)c1cccc(Br)c1 (configuration not stated) | > 50 µM (inactive)
O=C(NC(c1ccc(Cl)c(Cl)c1)c1nc(-c2ccccc2)no1)c1cccc(Cl)c1 (configuration not stated) | > 50 µM (inactive)
O=C(NC(c1ccc(Cl)c(Cl)c1)c1nc(-c2ccccc2)no1)c1ccc(Cl)cc1 (configuration not stated) | > 50 µM (inactive)
Cc1ccc(C(=O)NC(c2ccccc2)c2nc(-c3ccccc3)no2)cc1 (configuration not stated) | > 50 µM (inactive)
O=C(NC(c1ccc(Cl)cc1)c1nc(-c2ccccc2)no1)c1ccc(Cl)c(Cl)c1 (configuration not stated) | > 50 µM (inactive)
O=C(NC(c1ccc(Cl)cc1)c1nc(-c2cccc(Cl)c2)no1)c1cccc(Cl)c1 (configuration not stated) | > 50 µM (inactive)
O=C(NC(c1ccccc1)c1nc(-c2ccccc2)no1)c1cccc(Cl)c1 (configuration not stated) | > 50 µM (inactive)
N#Cc1ccc(C(=O)NC(c2ccc(Cl)c(Cl)c2)c2nc(-c3ccccc3)no2)cc1 (configuration not stated) | > 50 µM (inactive)
O=C(NC(c1nc(-c2ccccc2)no1)C1CCCCC1)c1ccc(Cl)c(Cl)c1 (configuration not stated) | > 50 µM (inactive)
O=C(NC(c1ccccc1)c1nc(-c2ccccc2)no1)c1ccc(Cl)cc1 (configuration not stated) | > 50 µM (inactive)
O=C(NC(c1ccc(Br)cc1)c1nc(-c2ccccc2)no1)c1ccc(Cl)c(Cl)c1 (configuration not stated) | > 50 µM (inactive)
